Source: the NIST ThermoML archive (doi:10.1016/j.jct.2013.04.021)

Test: xn = mol fraction of the nth substance listed
Details: 101 kPa, Liquid; for mass density: Vibrating tube method; for speed of sound: fixed-path interferometer; for viscosity: Capillary tube (Ostwald / Ubbelohde) method

CCCCOCCO [2-butoxyethan-1-ol] + CCCCCCCCCCO
Details	mass density [kg/m3]	speed of sound [m/s]	viscosity [mPa·s]
293.15 K, x1 = 0.0563	832.457	1392	–
293.15 K, x1 = 0.1024	834.521	1388.2	–
293.15 K, x1 = 0.1544	836.95	1383.8	–
293.15 K, x1 = 0.2049	839.424	1379.5	–
293.15 K, x1 = 0.2531	841.903	1374.8	–
293.15 K, x1 = 0.3066	844.775	1369.9	–
293.15 K, x1 = 0.4028	850.363	1360.7	–
293.15 K, x1 = 0.5033	856.773	1351.5	–
293.15 K, x1 = 0.6031	863.803	1343.5	–
293.15 K, x1 = 0.7009	871.448	1337.1	–
293.15 K, x1 = 0.8043	880.396	1331.2	–
293.15 K, x1 = 0.8532	884.962	1328.7	–
293.15 K, x1 = 0.8996	889.528	1326.3	–
293.15 K, x1 = 0.9447	894.239	1324.5	–
298.15 K, x1 = 0.0563	829	1374.9	10.7
298.15 K, x1 = 0.1024	831.148	1371.1	9.884
298.15 K, x1 = 0.1544	833.643	1366.8	9.125
298.15 K, x1 = 0.2049	836.177	1362.6	8.425
298.15 K, x1 = 0.2531	838.694	1358.3	7.84
298.15 K, x1 = 0.3066	841.628	1353.7	7.29
298.15 K, x1 = 0.4028	847.26	1344.9	6.351
298.15 K, x1 = 0.5033	853.675	1336.1	5.491
298.15 K, x1 = 0.6031	860.637	1328.2	4.852
298.15 K, x1 = 0.7009	868.128	1321.1	4.26
298.15 K, x1 = 0.8043	876.828	1314.9	3.68
298.15 K, x1 = 0.8532	881.288	1312.6	3.446
298.15 K, x1 = 0.8996	885.737	1310.2	3.261
298.15 K, x1 = 0.9447	890.317	1308.3	3.107
303.15 K, x1 = 0.0563	825.535	1358.1	8.765
303.15 K, x1 = 0.1024	827.625	1354.4	8.155
303.15 K, x1 = 0.1544	830.09	1350.1	7.554
303.15 K, x1 = 0.2049	832.6	1345.9	7.026
303.15 K, x1 = 0.2531	835.09	1341.7	6.577
303.15 K, x1 = 0.3066	837.986	1337.1	6.114
303.15 K, x1 = 0.4028	843.566	1328.9	5.33
303.15 K, x1 = 0.5033	849.927	1320.8	4.683
303.15 K, x1 = 0.6031	856.84	1313.2	4.089
303.15 K, x1 = 0.7009	864.279	1306.3	3.638
303.15 K, x1 = 0.8043	872.98	1299.7	3.162
303.15 K, x1 = 0.8532	877.42	1296.7	2.979
303.15 K, x1 = 0.8996	881.86	1294.2	2.814
303.15 K, x1 = 0.9447	886.371	1291.7	2.671
308.15 K, x1 = 0.0563	822.068	1341.5	7.476
308.15 K, x1 = 0.1024	824.141	1337.8	6.95
308.15 K, x1 = 0.1544	826.569	1333.9	6.449
308.15 K, x1 = 0.2049	829.044	1330	5.981
308.15 K, x1 = 0.2531	831.491	1326.1	5.619
308.15 K, x1 = 0.3066	834.361	1321.8	5.215
308.15 K, x1 = 0.4028	839.86	1314.1	4.618
308.15 K, x1 = 0.5033	846.141	1306	4.088
308.15 K, x1 = 0.6031	852.988	1298.2	3.601
308.15 K, x1 = 0.7009	860.384	1290.9	3.195
308.15 K, x1 = 0.8043	869.011	1283.7	2.808
308.15 K, x1 = 0.8532	873.415	1280.6	2.609
308.15 K, x1 = 0.8996	877.785	1277.7	2.453
308.15 K, x1 = 0.9447	882.225	1275.3	2.295
313.15 K, x1 = 0.0563	818.532	1324.8	–
313.15 K, x1 = 0.1024	820.551	1321.5	–
313.15 K, x1 = 0.1544	822.945	1317.8	–
313.15 K, x1 = 0.2049	825.399	1314.2	–
313.15 K, x1 = 0.2531	827.825	1310.6	–
313.15 K, x1 = 0.3066	830.657	1306.6	–
313.15 K, x1 = 0.4028	836.098	1299.4	–
313.15 K, x1 = 0.5033	842.307	1292	–
313.15 K, x1 = 0.6031	849.078	1284.5	–
313.15 K, x1 = 0.7009	856.416	1277	–
313.15 K, x1 = 0.8043	864.959	1269.4	–
313.15 K, x1 = 0.8532	869.328	1266.2	–
313.15 K, x1 = 0.8996	873.661	1262.7	–
313.15 K, x1 = 0.9447	878.012	1259.7	–

CCCCOCCO [2-butoxyethan-1-ol] + CCCCCCCCO
Details	mass density [kg/m3]	speed of sound [m/s]	viscosity [mPa·s]
293.15 K, x1 = 0.053	828.488	1361.8	–
293.15 K, x1 = 0.105	831.623	1359	–
293.15 K, x1 = 0.167	835.443	1355.4	–
293.15 K, x1 = 0.2004	837.529	1353.2	–
293.15 K, x1 = 0.2561	841.092	1350.3	–
293.15 K, x1 = 0.3039	844.242	1347.8	–
293.15 K, x1 = 0.4046	851.133	1342.7	–
293.15 K, x1 = 0.5013	858.109	1338.2	–
293.15 K, x1 = 0.6004	865.629	1334	–
293.15 K, x1 = 0.7009	873.666	1330.3	–
293.15 K, x1 = 0.8027	882.262	1327	–
293.15 K, x1 = 0.852	886.596	1325.6	–
293.15 K, x1 = 0.9007	891.001	1324.4	–
293.15 K, x1 = 0.9512	895.736	1323.4	–
298.15 K, x1 = 0.053	825.018	1344.8	6.97
298.15 K, x1 = 0.1049	–	–	6.636
298.15 K, x1 = 0.105	828.108	1342.1	–
298.15 K, x1 = 0.167	831.899	1338.4	6.076
298.15 K, x1 = 0.2004	833.978	1336.4	5.882
298.15 K, x1 = 0.2561	837.535	1333.4	5.471
298.15 K, x1 = 0.3039	840.656	1330.9	5.254
298.15 K, x1 = 0.4046	847.482	1325.9	4.678
298.15 K, x1 = 0.5013	854.363	1321.3	4.286
298.15 K, x1 = 0.6004	861.773	1316.9	3.885
298.15 K, x1 = 0.7009	869.705	1313.2	3.588
298.15 K, x1 = 0.8027	878.21	1310	3.287
298.15 K, x1 = 0.852	882.514	1308.5	3.165
298.15 K, x1 = 0.9007	886.89	1307.5	3.04
298.15 K, x1 = 0.9512	891.594	1306.5	2.901
303.15 K, x1 = 0.053	821.521	1328.1	5.789
303.15 K, x1 = 0.1049	–	–	5.499
303.15 K, x1 = 0.105	824.6	1325.4	–
303.15 K, x1 = 0.167	828.337	1321.7	5.128
303.15 K, x1 = 0.2004	830.387	1319.7	4.946
303.15 K, x1 = 0.2561	833.89	1316.7	4.656
303.15 K, x1 = 0.3039	836.962	1314.2	4.44
303.15 K, x1 = 0.4046	843.721	1309.1	4.001
303.15 K, x1 = 0.5013	850.582	1304.5	3.647
303.15 K, x1 = 0.6004	857.95	1300.3	3.31
303.15 K, x1 = 0.7009	865.804	1296.5	3.045
303.15 K, x1 = 0.8027	874.181	1293.3	2.825
303.15 K, x1 = 0.852	878.409	1292	2.734
303.15 K, x1 = 0.9007	882.718	1290.8	2.661
303.15 K, x1 = 0.9512	887.379	1289.8	2.636
308.15 K, x1 = 0.053	818.004	1311.3	5.048
308.15 K, x1 = 0.1049	–	–	4.78
308.15 K, x1 = 0.105	821.021	1308.8	–
308.15 K, x1 = 0.167	824.71	1305.5	4.442
308.15 K, x1 = 0.2004	826.746	1303.3	4.298
308.15 K, x1 = 0.2561	830.229	1300.5	4.049
308.15 K, x1 = 0.3039	833.292	1298.2	3.878
308.15 K, x1 = 0.4046	839.998	1293.1	3.519
308.15 K, x1 = 0.5013	846.771	1288.7	3.229
308.15 K, x1 = 0.6004	854.07	1284.5	2.965
308.15 K, x1 = 0.7009	861.87	1280.5	2.753
308.15 K, x1 = 0.8027	870.213	1277	2.545
308.15 K, x1 = 0.852	874.403	1275.4	2.457
308.15 K, x1 = 0.9007	878.687	1274.1	2.369
308.15 K, x1 = 0.9512	883.226	1273	2.281
313.15 K, x1 = 0.053	814.437	1294.9	–
313.15 K, x1 = 0.105	817.45	1292.3	–
313.15 K, x1 = 0.167	821.134	1289.2	–
313.15 K, x1 = 0.2004	823.153	1287.3	–
313.15 K, x1 = 0.2561	826.589	1284.5	–
313.15 K, x1 = 0.3039	829.618	1282.2	–
313.15 K, x1 = 0.4046	836.231	1277.4	–
313.15 K, x1 = 0.5013	842.934	1273	–
313.15 K, x1 = 0.6004	850.161	1268.8	–
313.15 K, x1 = 0.7009	857.881	1264.7	–
313.15 K, x1 = 0.8027	866.131	1261.1	–
313.15 K, x1 = 0.852	870.301	1259.5	–
313.15 K, x1 = 0.9007	874.538	1258	–
313.15 K, x1 = 0.9512	879.067	1256.6	–
